Literature values, collected in patent US10561603B2, “Core-shell structure and topical agent” (SEKISUI CHEMICAL CO., LTD., priority 2015, dated 2020).
Where a name gives a salt, the structure may show the parent alone.

Conditions: given with manufacturer and molecular weight of the drug raw material

Compound | water-octanol partition coefficient
C[C@@H](O)[C@@H]1NC(=O)[C@H](CCCCN)NC(=O)[C@@H](Cc2c[nH]c3ccccc23)NC(=O)[C@H](Cc2ccccc2)NC(=O)[C@@H](NC(=O)[C@H](N)Cc2ccccc2)CSSC[C@@H](C(=O)N[C@H](CO)[C@@H](C)O)NC1=O [octreotide acetate] | 0.1
CCCc1nc(C)c2c(=O)[nH]c(-c3cc(S(=O)(=O)N4CCN(CC)CC4)ccc3OCC)nn12 [vardenafil hydrochloride trihydrate] | 3.2
